Paper PMC4894917, “Differences in Enzymatic Properties of the Saccharomyces kudriavzevii and Saccharomyces uvarum Alcohol Acetyltransferases and Their Impact on Aroma-Active Compounds Production” (Frontiers in Microbiology, 2016)

Experiments:
SkAtf2p = molecular target: T1, SkAtf2p (Saccharomyces kudriavzevii, UniProt A0AA35JHW3); test: acetate ester formation by headspace SPME gas chromatography, cell extract; type: biochemical; settings: acetyl-CoA 0.8 mM, 50 mM potassium phosphate pH 7.5, 10% glycerol
T1 construct: gene SKDI07G4300; full-length untagged, pG-SkATF2-TDH3p in S. cerevisiae BY4741 atf1 atf2 iah1, cell extract (strain CLpSkATF2); N-terminus MDDIEEY translated from printed primer pGSkATF2f
T1 sequence (A0AA35JHW3 1-535): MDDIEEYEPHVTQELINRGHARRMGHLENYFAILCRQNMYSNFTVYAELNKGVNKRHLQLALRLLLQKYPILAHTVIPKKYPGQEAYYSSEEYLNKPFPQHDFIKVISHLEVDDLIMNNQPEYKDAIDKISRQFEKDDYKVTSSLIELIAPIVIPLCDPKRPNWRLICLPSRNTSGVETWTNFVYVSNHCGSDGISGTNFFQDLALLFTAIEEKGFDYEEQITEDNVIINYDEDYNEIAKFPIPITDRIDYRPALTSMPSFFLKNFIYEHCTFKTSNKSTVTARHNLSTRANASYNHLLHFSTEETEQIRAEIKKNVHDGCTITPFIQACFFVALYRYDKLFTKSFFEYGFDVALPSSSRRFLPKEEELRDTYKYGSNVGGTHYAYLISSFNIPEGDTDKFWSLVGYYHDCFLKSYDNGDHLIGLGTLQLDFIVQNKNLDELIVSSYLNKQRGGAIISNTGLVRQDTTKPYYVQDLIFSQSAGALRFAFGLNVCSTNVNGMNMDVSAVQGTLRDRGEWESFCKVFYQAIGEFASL

SuAtf2p = molecular target: T2, SuAtf2p (Saccharomyces uvarum, UniProt A0ABN8WWD5); test: as above; type: biochemical; settings: acetyl-CoA 0.8 mM, 50 mM potassium phosphate pH 7.5, 10% glycerol
T2 construct: gene SUVZ07G4070; full-length untagged, pG-SuATF2-TDH3p in S. cerevisiae BY4741 atf1 atf2 iah1, cell extract (strain CLpSuATF2); N-terminus MDSLEEY translated from printed primer pGSuATF2f
T2 sequence (A0ABN8WWD5 1-545): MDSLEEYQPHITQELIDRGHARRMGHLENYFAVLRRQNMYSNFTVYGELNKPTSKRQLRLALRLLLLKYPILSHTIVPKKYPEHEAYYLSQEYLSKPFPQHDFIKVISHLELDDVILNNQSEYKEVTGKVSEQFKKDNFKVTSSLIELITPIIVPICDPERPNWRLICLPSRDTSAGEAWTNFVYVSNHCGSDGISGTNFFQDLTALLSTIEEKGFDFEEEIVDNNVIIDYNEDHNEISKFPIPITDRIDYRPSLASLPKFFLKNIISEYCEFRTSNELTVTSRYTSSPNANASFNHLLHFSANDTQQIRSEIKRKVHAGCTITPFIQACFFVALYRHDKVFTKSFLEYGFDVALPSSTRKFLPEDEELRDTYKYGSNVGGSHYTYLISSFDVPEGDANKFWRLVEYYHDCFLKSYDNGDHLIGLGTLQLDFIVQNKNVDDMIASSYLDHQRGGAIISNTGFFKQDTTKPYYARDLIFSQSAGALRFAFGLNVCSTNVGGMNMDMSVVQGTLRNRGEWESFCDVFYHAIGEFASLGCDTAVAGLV

ScAtf2p = molecular target: T3, ScAtf2p (Saccharomyces cerevisiae, UniProt P53296); test: as above; type: biochemical; settings: acetyl-CoA 0.8 mM, 50 mM potassium phosphate pH 7.5, 10% glycerol
T3 construct: gene ATF2; full-length untagged, pG-ScATF2-TDH3p in S. cerevisiae BY4741 atf1 atf2 iah1, cell extract (strain CLpScATF2)
T3 sequence (P53296 1-535): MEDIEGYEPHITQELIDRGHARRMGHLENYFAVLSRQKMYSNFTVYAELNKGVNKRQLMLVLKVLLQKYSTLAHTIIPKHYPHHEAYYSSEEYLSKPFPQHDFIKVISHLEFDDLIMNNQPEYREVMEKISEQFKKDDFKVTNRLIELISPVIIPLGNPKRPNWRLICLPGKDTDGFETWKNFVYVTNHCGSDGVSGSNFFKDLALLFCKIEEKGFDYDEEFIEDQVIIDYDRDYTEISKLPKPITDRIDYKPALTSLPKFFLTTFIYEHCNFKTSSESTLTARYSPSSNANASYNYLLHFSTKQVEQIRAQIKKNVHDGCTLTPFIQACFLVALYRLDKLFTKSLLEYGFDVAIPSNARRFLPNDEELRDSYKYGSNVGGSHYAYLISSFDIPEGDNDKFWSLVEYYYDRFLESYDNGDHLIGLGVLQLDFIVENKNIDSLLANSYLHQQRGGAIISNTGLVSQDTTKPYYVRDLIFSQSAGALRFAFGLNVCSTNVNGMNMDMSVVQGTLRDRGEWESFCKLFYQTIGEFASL

[1] = substrate: CC(C)CCO; test: isoamyl acetate formation by headspace SPME gas chromatography, cell extract; type: biochemical, Saccharomyces uvarum; settings: acetyl-CoA 0.8 mM, 50 mM potassium phosphate pH 7.5, 10% glycerol, isoamyl alcohol 0.01-100 mM
Source text: isoamyl acetate formation by headspace SPME gas chromatography, cell extract on SuAtf1p

[2] = substrate: CC(C)CCO; test: as above; type: biochemical, Saccharomyces cerevisiae; settings: acetyl-CoA 0.8 mM, 50 mM potassium phosphate pH 7.5, 10% glycerol, isoamyl alcohol 0.01-100 mM
Source text: isoamyl acetate formation by headspace SPME gas chromatography, cell extract on ScAtf1p

Q: What does the source list for OCCc1ccccc1 [2-phenylethanol]?
A: acetate ester formation by headspace SPME gas chromatography, cell extract (SkAtf2p; 30 mM alcohol): the proportion of the enzyme activity of SkAtf2p and SuAtf2p to 2-phenylethanol; acetate ester formation by headspace SPME gas chromatography, cell extract (SuAtf2p; 30 mM alcohol): the proportion of the enzyme activity of SkAtf2p and SuAtf2p to 2-phenylethanol; acetate ester formation by headspace SPME gas chromatography, cell extract (ScAtf2p; 30 mM alcohol): all the strains that expressed the individual ATF1 and ATF2 orthologs exhibited activities

Q: What does the source list for CC(C)CCO [isoamyl alcohol]?
A: acetate ester formation by headspace SPME gas chromatography, cell extract (SkAtf2p; 100 mM alcohol): enzymes Atf2 showed considerably stronger activity toward isoamyl alcohol than the other substrates; acetate ester formation by headspace SPME gas chromatography, cell extract (SuAtf2p; 100 mM alcohol): enzymes Atf2 showed considerably stronger activity toward isoamyl alcohol than the other substrates; acetate ester formation by headspace SPME gas chromatography, cell extract (ScAtf2p; 100 mM alcohol): enzymes Atf2 showed considerably stronger activity toward isoamyl alcohol than the other substrates

B1: SuAtf1p (Saccharomyces uvarum) (protein)
chain: MNTYSEKTSLVQDECLAKMIQNGHSRRMGSVEDLYAALNRQKLYRNFSTYSELNDYCTKDQLTLALRNICLKNPTLLHIVLPARWPDYENYYLSTEYYSQPHPKHDYISVLPELKFDGVILNEQPEHNALMKQILQELKDNNGSYTAKVFKLTTALTIPYAGPTSPTWRLICLPEEGHTDKWKKFIFLSNHCMCDGRSSIHFFQDLRDELNNMKTPPKKLDYIFQYEKDYQLLRKLPEPIENMIDFRPPYMFIPKSLISGFIYSHLRFSSKGVCTRMDEIEKSDEVVTEIITISPSEFQKIKAIIKSNIPGKCTITPFLEVCWFVSLHKWGKFFKPLKFEWLTDVFIPADCRSLLPEDEEVRAMYRYGANVGFVDFTPWISEFNMNDSKENFWPLIAHYHEVISGAIKDKKHLNGLGFNIQGLVQKYVNIDKVMRDRALGKSRGGTLLSNVGIFHQSEETDSRYSIRDLAFGQFQGSWHQAFSLGVCSTNVKGMNIVISSTKNVVGSQESLEELCAMYKALLLNP
notes: full-length untagged, pG-SuATF1-TDH3p in S. cerevisiae BY4741 atf1 atf2 iah1, cell extract (strain CLpSuATF1); N-terminus MNTYSE translated from printed primer pGSuATF1f
Q: Which Km [1] does the source give for B1 here?
A: 92.9 ± 10.9 mM

Q: What about the Vmax [1] of the same molecule?
A: 0.00569 µmol/min/mg

B2: ScAtf1p (Saccharomyces cerevisiae S288C) (protein)
chain: MNEIDEKNQAPVQQECLKEMIQNGHARRMGSVEDLYVALNRQNLYRNFCTYGELSDYCTRDQLTLALREICLKNPTLLHIVLPTRWPNHENYYRSSEYYSRPHPVHDYISVLQELKLSGVVLNEQPEYSAVMKQILEEFKNSKGSYTAKIFKLTTTLTIPYFGPTGPSWRLICLPEEHTEKWKKFIFVSNHCMSDGRSSIHFFHDLRDELNNIKTPPKKLDYIFKYEEDYQLLRKLPEPIEKVIDFRPPYLFIPKSLLSGFIYNHLRFSSKGVCMRMDDVEKTDDVVTEIINISPTEFQAIKANIKSNIQGKCTITPFLHVCWFVSLHKWGKFFKPLNFEWLTDIFIPADCRSQLPDDDEMRQMYRYGANVGFIDFTPWISEFDMNDNKENFWPLIEHYHEVISEALRNKKHLHGLGFNIQGFVQKYVNIDKVMCDRAIGKRRGGTLLSNVGLFNQLEEPDAKYSICDLAFGQFQGSWHQAFSLGVCSTNVKGMNIVVASTKNVVGSQESLEELCSIYKALLLGP
notes: full-length untagged, pG-ScATF1-TDH3p in S. cerevisiae BY4741 atf1 atf2 iah1, cell extract (strain CLpScATF1)
Q: With B2 as the molecule, how does the Km [2] read?
A: 32.2 ± 2.2 mM

Q: What about the Vmax [2] of the same molecule?
A: 0.00999 µmol/min/mg
